From ChEMBL document CHEMBL3739389, “2-Pyridylquinoloneantimalarials with improved antimalarial activity and physicochemical properties” (Medchemcomm, 2015) come the findings set out here.

Data set [1] concerns Plasmodium falciparum. In words: Antimalarial activity against drug resistant Plasmodium falciparum TM90C2B infected in human erythrocytes assessed as growth inhibition after 48 hrs by SYBR Green 1 staining-based fluorescence assay. The data set is classed as functional, organism-based.
Data set [2] can be described thus: Intrinsic clearance in human liver microsomes at 3 uM assessed per mg of protein up to 45 mins in presence of NADPH by LC-MS/MS analysis. The data set is classed as ADME. To be noted: read-out: CLH.
In data set [3] the test system is Plasmodium falciparum. Kind of data set: Antimalarial activity against drug resistant Plasmodium falciparum W2 infected in human erythrocytes assessed as growth inhibition after 48 hrs by SYBR Green 1 staining-based fluorescence assay. The data set is classed as functional, organism-based. To be noted: W2, 48 h.
Data set [4] is described as follows: Kinetic solubility of the compound in phosphate buffer at pH 1 at 200 uM. Format: physicochemical. Particulars: read-out: Kinetic_solubility.
Data set [5] can be described thus: Kinetic solubility of the compound in fixanal buffer at pH 7.4 at 200 uM. The data set is classed as physicochemical. To be noted: read-out: Kinetic_solubility.
Data set [6] deals with Plasmodium falciparum. Kind of data set: Antimalarial activity against Plasmodium falciparum 3D7 infected in human erythrocytes assessed as growth inhibition after 48 hrs by SYBR Green 1 staining-based fluorescence assay. Format: functional, organism-based. To be noted: 3D7, 48 h.
The nature of data set [7]: Intrinsic clearance in rat hepatocytes at 3 uM assessed per 10^6 cells up to 45 mins […] by LC-MS/MS analysis. Particulars: read-out: CLH. The data set is classed as ADME, cell-based, Hepatocyte.
Data set [8] concerns cytochrome b-c1 complex. Kind of data set: Inhibition of cytochrome b-c1 complex bovine heart mitochondrial membranes assessed as reduction in cytochrome c reductase activity using decylubiquinol as substrate at 100 uM by UV-visible spectrophotometric analysis. Particulars: cattle, probe decylubiquinol. Further details: species or system Bos taurus.
Data set [9] has as its system cytochrome b-c1 complex. In words: Inhibition of cytochrome b-c1 complex bovine heart mitochondrial membranes assessed as reduction in cytochrome c reductase activity using decylubiquinol as substrate at 1 uM by UV-visible spectrophotometric analysis. Further details: species or system Bos taurus. To be noted: cattle, probe decylubiquinol.

Structures are written as SMILES. pIC50: −log10 of the molar value. In brackets after ≈: the same amount, converted by molar mass.

Turning to `Cc1c(-c2ccc(-c3ccc(OC(F)(F)F)cc3)nc2)[nH]c2ccccc2c1=O`, the pIC50 was 6.81 with Plasmodium falciparum [1] and 7.32 with Plasmodium falciparum [3]. The microsomal CLint at 3 µM in data set [2] was found to be 20.6 µL/min/mg. Further, the solubility kinetic at 200 µM in [4] is 3.2 µM (≈ 1.27 µg/mL); in [5], under 1 µM.
In the case of `COc1cccc2[nH]c(-c3ccc(-c4ccc(OC(F)(F)F)cc4)nc3)c(C)c(=O)c12`, in the data set on Plasmodium falciparum [6], the pIC50 was under 6.00.
Consider `COc1ccc2[nH]c(-c3ccc(-c4ccc(OC(F)(F)F)cc4)nc3)c(C)c(=O)c2c1`, for which, in the data set with Plasmodium falciparum [6], the pIC50 was under 6.00.
With `COc1cccc2c(=O)c(C)c(-c3ccc(-c4ccc(OC(F)(F)F)cc4)nc3)[nH]c12`, in the data set with Plasmodium falciparum [6], the pIC50 was under 6.00.
For the molecule `Cc1c(-c2ccc(-c3ccc(OC(F)(F)F)cc3)nc2)[nH]c2ccc(O)cc2c1=O`, the pIC50 with Plasmodium falciparum [6] was 6.49.
Consider `Cc1c(-c2ccc(-c3ccc(OC(F)(F)F)cc3)nc2)[nH]c2c(O)cccc2c1=O`, for which the negative logarithm of the IC50 (pIC50) in the data set on Plasmodium falciparum [6] is under 6.00.
Consider `COc1ccc2c(=O)c(C)c(-c3ccc(-c4ccc(Cl)c(Cl)c4)nc3)[nH]c2c1`, for which the pIC50 in the data set with Plasmodium falciparum [6] was 6.70.
Consider `COc1ccc2c(=O)c(C)c(-c3cncc(-c4ccc(Cl)c(Cl)c4)c3)[nH]c2c1`, for which the hepatocyte CLint at 3 µM in [7] was found to be 4.9 µL/min/1e6 cells. Also, the microsomal CLint at 3 µM in data set [2] amounted to 14 µL/min/mg. Further, in the data set on Plasmodium falciparum [6], the pIC50 is 7.74. Moreover, the inhibition at 100 µM with cytochrome b-c1 complex [8] was found to be 13%. In addition, the solubility kinetic at 200 µM turned out to be 15 µM (≈ 6.17 µg/mL) in data set [4] and 14 µM (≈ 5.76 µg/mL) in data set [5]. In addition, the inhibition at 1 µM with cytochrome b-c1 complex [9] is 20%.
Take `Cc1c(-c2cncc(-c3ccc(OC(F)(F)F)cc3)c2)[nH]c2ccccc2c1=O`: the hepatocyte CLint at 3 µM in data set [7] turned out to be 1.8 µL/min/1e6 cells. Also, in data set [2], the microsomal CLint at 3 µM is 12.5 µL/min/mg. In addition, the pIC50 in the data set with Plasmodium falciparum [6] was 7.39. For the same molecule, the inhibition at 100 µM in the data set with cytochrome b-c1 complex [8] worked out at 20%. Further, the solubility kinetic at 200 µM came out at 140 µM (≈ 55.5 µg/mL) in data set [4] and 3.6 µM (≈ 1.43 µg/mL) in data set [5]. The inhibition at 1 µM with cytochrome b-c1 complex [9] stood at 25%.
Consider `Cc1c(-c2cccc(-c3ccc(OC(F)(F)F)cc3)n2)[nH]c2ccccc2c1=O`, for which, in the data set on Plasmodium falciparum [6], the pIC50 was 6.41.
Regarding `COc1ccc2c(=O)c(C)c(-c3ccc(-c4ccc(OC(F)(F)F)cc4)nc3)[nH]c2c1`, the pIC50 with Plasmodium falciparum [6] is 7.85. Moreover, the inhibition at 100 µM with cytochrome b-c1 complex [8] amounted to 55%. In addition, the solubility kinetic at 200 µM in data set [4] was 2.6 µM (≈ 1.11 µg/mL); in data set [5], under 1 µM. Further, the inhibition at 1 µM in the data set with cytochrome b-c1 complex [9] was 98%.
On to `COc1ccc2c(=O)c(C)c(-c3ccnc(-c4ccc(OC(F)(F)F)cc4)c3)[nH]c2c1`, for which the pIC50 in the data set on Plasmodium falciparum [1] was 8.15; in the data set on Plasmodium falciparum [6], 7.92; in the data set on Plasmodium falciparum [3] it was 8.38. In addition, the inhibition at 100 µM in the data set on cytochrome b-c1 complex [8] is 63%. Further, the values for the solubility kinetic at 200 µM in data set [4] and in [5] were 120 µM (≈ 51.2 µg/mL) and under 1 µM, respectively. In the data set with cytochrome b-c1 complex [9], the inhibition at 1 µM is 85%.
With `COc1ccc2c(=O)c(C)c(-c3cc(-c4ccc(OC(F)(F)F)cc4)ccn3)[nH]c2c1`, the pIC50 with Plasmodium falciparum [6] was 6.82.
Still for that read-out and setting: for `COc1ccc2c(=O)c(C)c(-c3ccc(-c4ccc(OC(F)(F)F)cc4)cn3)[nH]c2c1` the value was under 6.00.
In the case of `Cc1c(-c2ccc(-c3ccc(OC(F)(F)F)cc3)cn2)[nH]c2ccccc2c1=O`, the pIC50 with Plasmodium falciparum [6] is under 6.00.
Turning to `COc1ccc2c(=O)c(C)c(-c3cccc(-c4ccc(OC(F)(F)F)cc4)n3)[nH]c2c1`, the pIC50 in the data set on Plasmodium falciparum [6] was 6.83.
As for `O=c1c2c([nH]c3ccccc13)CN(Cc1ccc(OC(F)(F)F)cc1)C2`, the pIC50 in the data set on Plasmodium falciparum [6] is 6.70.
`O=c1c2c([nH]c3ccccc13)CN(Cc1ccc(Cl)c(Cl)c1)C2`: the pIC50 in the data set with Plasmodium falciparum [6] is 7.15.
Consider `Cc1c(-c2cncc(-c3ccc(Cl)c(Cl)c3)c2)[nH]c2ccccc2c1=O`, for which, in data set [7], the hepatocyte CLint at 3 µM was found to be 9.9 µL/min/1e6 cells. Also, in data set [2], the microsomal CLint at 3 µM stood at 5.6 µL/min/mg. Further, in the data set with Plasmodium falciparum [6], the pIC50 is 7.40.
On to `COc1ccc2c(=O)c(C)c(-c3cncc(-c4ccc(OC(F)(F)F)cc4)c3)[nH]c2c1`, for which the hepatocyte CLint at 3 µM in [7] stood at 1.2 µL/min/1e6 cells. In addition, the pIC50 in the data set with Plasmodium falciparum [1] is 8.14; in the data set with Plasmodium falciparum [6], 7.92; in the data set on Plasmodium falciparum [3], 8.40. For the same molecule, the microsomal CLint at 3 µM in [2] was 25.9 µL/min/mg. Moreover, the inhibition at 100 µM with cytochrome b-c1 complex [8] came out at 19%. For the same molecule, the solubility kinetic at 200 µM in data set [4] is 7.8 µM (≈ 3.33 µg/mL); in [5] it was under 1 µM. Also, in the data set on cytochrome b-c1 complex [9], the inhibition at 1 µM was 81%.
Take `Cc1c(-c2ccnc(-c3ccc(OC(F)(F)F)cc3)c2)[nH]c2ccccc2c1=O`: the hepatocyte CLint at 3 µM in [7] was 2.5 µL/min/1e6 cells. Besides, the microsomal CLint at 3 µM in [2] turned out to be 7.7 µL/min/mg. For the same molecule, the pIC50 with Plasmodium falciparum [6] was 7.68. In addition, the inhibition at 100 µM with cytochrome b-c1 complex [8] worked out at 52%. The solubility kinetic at 200 µM is 79 µM (≈ 31.3 µg/mL) in [4] and 2.1 µM (≈ 0.832 µg/mL) in data set [5]. In addition, the inhibition at 1 µM in the data set on cytochrome b-c1 complex [9] amounted to 81%.
On to `O=C1C(O)=C([C@H]2CC[C@H](c3ccc(Cl)cc3)CC2)C(=O)c2ccccc21` [ATOVAQUONE], for which the pIC50 is 5.00 with Plasmodium falciparum [1] and 9.52 in the data set with Plasmodium falciparum [3].
